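Results reflect a 48-hour exposure of cells in 96-well plates to compound at five concentrations. Definition used: TGI = concentration required for complete inhibition of growth.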

What all share (assay): growth of human tumour cells (NCI), 48 h
In test [1] the test system is MOLT-4 leukemia.
Test [2] deals with SF-295 CNS.
Test [3] deals with CCRF-CEM leukemia.
In test [4] the test system is SW-620 colon.
Test [5] concerns A498 renal.
The test system of test [6] is SK-OV-3 ovarian.
Test [7] deals with UACC-257 melanoma.
Test [8] deals with IGROV1 ovarian.
Test [9] relates to U251 CNS.
Test [10] relates to CAKI-1 renal.
The test system of test [11] is OVCAR-4 ovarian.
The subject of test [12] is UO-31 renal.
For test [13], the system named is LOX IMVI melanoma.
Test [14] deals with HCT-15 colon.
In test [15] the test system is HOP-62 NSCLC.
Test [16] relates to SK-MEL-28 melanoma.
For test [17], the system named is NCI-H23 lung.
Test [18] relates to ACHN renal.
Test [19] has as its system MCF7 breast.

In the case of `Cc1ccc(NC(=O)C(=O)C2C(=O)NC(=O)NC2=O)c(C)c1`, the TGI in test [1], in test [2], in test [3], in test [4], in test [5] and in test [6] was over 100 µM throughout. Also, the TGI in [7], in [8], in [9], in test [10], in test [11] and in test [12] was over 100 µM each time. For the same compound, the TGI in test [13], in test [14], in test [15], in test [16], in test [17] and in test [18] was over 100 µM each time.

In the case of `O=C1/C(=C/c2ccc([N+](=O)[O-])cc2)CCCc2ccccc21`, the TGI in test [1], in test [2], in test [3], in test [4], in test [6] and in [7] was over 100 µM throughout. Moreover, the TGI in test [8], in test [9], in test [19], in [10], in test [11] and in [12] was over 100 µM throughout. Moreover, the TGI in test [13], in test [14], in [15], in test [16], in test [17] and in test [18] was over 100 µM throughout.

As to `CSc1nc2nccnc2c(=O)[nH]1`, the TGI in test [1], in [2], in [3], in [4], in test [5] and in test [6] was over 100 µM each time. Also, the TGI in test [7], in test [8], in test [9], in test [10], in test [11] and in test [12] was over 100 µM throughout. Further, the TGI in [13], in [14], in test [15], in test [16], in test [17] and in test [18] was over 100 µM each time.

As to `[N-]=[N+]=C1C(=O)C2CC3CC1CC2C3` (configuration not stated), the TGI in [1], in test [2], in [3], in [4], in test [5] and in [6] was over 100 µM in each case. The TGI in [7], in test [8], in test [9], in test [10], in test [11] and in [12] was over 100 µM in each case. In addition, the TGI in test [13], in [14], in test [15], in test [16], in test [17] and in test [18] was over 100 µM in each case.

`COc1ccc(C/C=C(\C)CCO)cc1`: the TGI in [1], in [2], in test [3], in test [4], in test [6] and in test [7] was over 100 µM throughout. The TGI in test [8] is over 100 µM; in [9], over 100 µM; in test [19] it was over 100 µM; in [10], 94.3 µM; in [11] it was over 100 µM; in test [12] it was over 100 µM. Moreover, the TGI in [13], in [14], in test [15], in [17] and in test [18] was over 100 µM throughout.

`NC1=C(O)/C(=N/NS(=O)(=O)c2ccccc2)C(c2ccc3c(c2)OCO3)O1` (configuration not stated): the TGI in test [1], in test [2], in test [3], in test [4], in test [5] and in [6] was over 100 µM each time. The TGI in test [7], in [8], in [9], in [10], in test [11] and in [12] was over 100 µM throughout. The TGI in test [13], in test [14], in test [15], in [16], in [17] and in test [18] was over 100 µM in each case.

Turning to `CC(C)(C)OC(=O)NC(Cc1ccccc1)C(=S)N1CCCC1` (configuration not stated), the TGI in [1], in [2], in test [3], in test [4], in test [5] and in test [6] was over 100 µM in each case. For the same compound, the TGI in test [7], in [8], in [9], in [10], in test [11] and in [12] was over 100 µM in each case. For the same compound, the TGI in [13] was over 100 µM; in [14] it was over 100 µM; in test [15], 91 µM; in test [16] it was over 100 µM; in test [17] it was over 100 µM; in test [18], over 100 µM.

For the compound `CC1=C(C(=O)O)N2C(=O)[C@@H](NC(=O)C(c3ccccc3)N3CSC(=S)N(C(C)C)C3)C2SC1` (some centres not stated), the TGI in test [1], in [2], in [3], in test [5], in test [6] and in test [7] was over 100 µM each time. The TGI in test [8], in test [9], in test [10], in test [11], in test [12] and in [13] was over 100 µM each time. Moreover, the TGI in test [14], in [15], in test [16], in test [17] and in [18] was over 100 µM in each case.

As for `COc1c(C)c(C/C=C(\C)CC/C=C(\C)CC/C=C(\C)CC/C=C(\C)CCC=C(C)C)c(OC)c(OC)c1OC`, the TGI in [1] is over 100 µM; in test [2], 44.2 µM; in [3], 53.8 µM; in test [4] it was over 100 µM; in test [6], over 100 µM; in [7], over 100 µM. For the same compound, the TGI was 60.3 µM in test [8]; over 100 µM in test [9]; over 100 µM in [19]; over 100 µM in test [10]; 52.3 µM in [11]; 70.4 µM in test [12]. The TGI in test [13] was 33.7 µM; in test [14], over 100 µM; in test [15], 37.6 µM; in test [17], 44.2 µM; in test [18], 33.3 µM.

Regarding `CC1=C(O)C(=O)C2C(=O)C1C(C)C2c1ccccc1` (configuration not stated), the TGI in [1], in test [2], in test [3], in [4], in test [5] and in test [6] was over 100 µM in each case. In addition, the TGI in test [7], in test [8], in [9], in [10], in test [11] and in [12] was over 100 µM in each case. Besides, the TGI in test [13], in [14], in test [15], in test [16], in test [17] and in test [18] was over 100 µM throughout.

Turning to `CCCCN(C)CC(C(C)=O)C(c1ccccc1)c1c(O)c2ccccc2oc1=O` (configuration not stated), the TGI in test [1], in test [2], in [3], in test [4], in test [5] and in [6] was over 100 µM throughout. Besides, the TGI in test [7], in [8], in test [9], in test [10], in test [11] and in [12] was over 100 µM in each case. Also, the TGI in [13], in [14], in [15], in test [16], in test [17] and in [18] was over 100 µM each time.

As for `Oc1ccc(O)c(-n2cccn2)c1`, the TGI in test [1] was 59.5 µM; in test [2], over 100 µM; in test [3], 57 µM; in [4], 73.7 µM; in test [5], over 100 µM; in [6], over 100 µM. Further, the TGI in test [8] was over 100 µM; in test [9], over 100 µM; in test [10], 33.3 µM; in test [11] it was over 100 µM; in [12] it was over 100 µM; in test [13], over 100 µM. For the same compound, the TGI in test [14], in [15], in [16], in [17] and in [18] was over 100 µM in each case.
